Experimental data reported in patent EP1247803A2, “Indolinone compounds suitable for modulation of protein kinases” (Sugen, Inc., priority 1996, dated 1998).

Legend:
MET = MET biochemical kinase assay; parameters: species or system human; concentration or dose not given beside the values
How it was run: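 Plates coated with anti-rabbit Fc bind a rabbit anti-MET antibody that captures receptor from cell lysates; unbound protein is washed off before compound and ATP-containing kinase buffer go in.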

PDGF-R = PDGF-R (Homo sapiens, UniProt P09619); experiment: PDGF-R ELISA; format: cell-based
PDGF-R, sequence (P09619 33-1106, species assumed): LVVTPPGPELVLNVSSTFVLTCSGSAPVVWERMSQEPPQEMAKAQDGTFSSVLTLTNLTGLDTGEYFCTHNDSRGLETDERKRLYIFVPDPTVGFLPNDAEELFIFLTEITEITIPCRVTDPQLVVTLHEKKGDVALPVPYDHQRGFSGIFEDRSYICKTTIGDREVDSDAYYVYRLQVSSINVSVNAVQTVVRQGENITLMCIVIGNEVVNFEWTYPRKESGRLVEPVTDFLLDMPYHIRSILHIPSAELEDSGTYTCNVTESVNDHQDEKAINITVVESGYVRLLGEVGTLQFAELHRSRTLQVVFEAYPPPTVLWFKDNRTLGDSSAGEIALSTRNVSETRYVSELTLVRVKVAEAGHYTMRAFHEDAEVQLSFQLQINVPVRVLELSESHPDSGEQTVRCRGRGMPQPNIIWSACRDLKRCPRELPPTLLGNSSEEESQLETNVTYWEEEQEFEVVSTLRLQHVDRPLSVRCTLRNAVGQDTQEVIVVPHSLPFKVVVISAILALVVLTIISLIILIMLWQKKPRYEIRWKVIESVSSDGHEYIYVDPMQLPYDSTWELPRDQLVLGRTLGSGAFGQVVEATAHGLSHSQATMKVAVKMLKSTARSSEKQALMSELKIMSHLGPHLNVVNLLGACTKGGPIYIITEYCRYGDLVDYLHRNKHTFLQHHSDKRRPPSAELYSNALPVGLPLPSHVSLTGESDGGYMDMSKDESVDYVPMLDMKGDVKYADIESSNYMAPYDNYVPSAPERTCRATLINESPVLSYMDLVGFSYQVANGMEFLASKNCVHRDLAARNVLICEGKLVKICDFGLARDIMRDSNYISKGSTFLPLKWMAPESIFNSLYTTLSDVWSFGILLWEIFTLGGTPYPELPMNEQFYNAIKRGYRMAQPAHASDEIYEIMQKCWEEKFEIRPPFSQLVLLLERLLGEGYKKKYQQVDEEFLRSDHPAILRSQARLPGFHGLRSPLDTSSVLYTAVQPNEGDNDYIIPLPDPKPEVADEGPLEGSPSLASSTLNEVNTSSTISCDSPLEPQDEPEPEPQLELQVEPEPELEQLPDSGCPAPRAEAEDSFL
Text: A PDGF-R ELISA is described in International Patent Publication No. WO 96/40116, published December 19, 1996 by Tang et al.

EGFR = biological target: T1, EGFR (Homo sapiens, UniProt P00533); experiment: EGFR ELISA assay (in vitro kinase activity, EGFR captured from A431 cell lysate); format: biochemical; parameters: concentration or dose not given beside the values
T1 construct: Add 7 ug A431 cell lysate per well (EGFR source); endogenous in cells; host or cells: A431
T1 sequence (P00533 25-1210): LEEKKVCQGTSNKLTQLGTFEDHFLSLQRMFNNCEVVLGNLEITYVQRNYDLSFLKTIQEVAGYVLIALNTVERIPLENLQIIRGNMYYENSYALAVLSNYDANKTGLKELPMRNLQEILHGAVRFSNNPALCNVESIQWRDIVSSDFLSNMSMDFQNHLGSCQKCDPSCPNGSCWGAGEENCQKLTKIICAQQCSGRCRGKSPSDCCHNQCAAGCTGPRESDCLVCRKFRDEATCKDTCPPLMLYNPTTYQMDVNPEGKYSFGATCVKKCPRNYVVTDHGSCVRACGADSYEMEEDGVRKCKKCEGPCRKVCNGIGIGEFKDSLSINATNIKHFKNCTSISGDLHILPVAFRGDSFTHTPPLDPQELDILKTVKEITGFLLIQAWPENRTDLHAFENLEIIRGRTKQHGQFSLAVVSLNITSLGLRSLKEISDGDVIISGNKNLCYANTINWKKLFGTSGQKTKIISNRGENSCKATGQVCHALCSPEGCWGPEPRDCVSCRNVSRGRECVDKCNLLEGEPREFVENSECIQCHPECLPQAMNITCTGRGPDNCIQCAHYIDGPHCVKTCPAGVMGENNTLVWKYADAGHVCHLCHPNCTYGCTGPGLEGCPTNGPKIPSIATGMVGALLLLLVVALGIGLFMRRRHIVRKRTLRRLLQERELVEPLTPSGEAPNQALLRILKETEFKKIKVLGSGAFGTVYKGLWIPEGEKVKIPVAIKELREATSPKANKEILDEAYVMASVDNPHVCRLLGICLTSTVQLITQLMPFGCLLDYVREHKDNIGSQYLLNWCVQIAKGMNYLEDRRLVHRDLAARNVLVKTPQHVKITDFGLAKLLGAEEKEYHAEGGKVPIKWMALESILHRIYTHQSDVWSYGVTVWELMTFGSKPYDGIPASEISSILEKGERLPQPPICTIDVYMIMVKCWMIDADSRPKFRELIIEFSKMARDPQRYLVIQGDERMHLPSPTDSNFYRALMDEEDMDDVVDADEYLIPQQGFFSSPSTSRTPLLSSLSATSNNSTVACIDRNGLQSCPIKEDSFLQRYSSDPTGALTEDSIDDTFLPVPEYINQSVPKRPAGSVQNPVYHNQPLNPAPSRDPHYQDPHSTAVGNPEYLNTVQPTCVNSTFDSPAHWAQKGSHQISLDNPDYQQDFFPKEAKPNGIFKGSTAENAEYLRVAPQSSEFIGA
How it was run: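 Receptor autophosphorylation was read by ELISA: anti-phosphotyrosine serum and an HRP-linked secondary with ABTS substrate, absorbance at 410 nm (reference 630 nm). The reaction ran 5 min with 3 µM ATP and 5 mM MnCl2 and was quenched by 20 mM EDTA. Compounds were first incubated 30 min with antibody-captured EGFR from A431 cell lysate.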

Structure (SMILES) | Met Kinase % Inhibition (MET) [%] | PDGF Kinase %Inhibition (PDGF-R) [%] | Biochem EGFR %Inhibition (EGFR) [%]
O=C1Nc2ccc(I)cc2C1=Cc1cc(Cl)ccc1O [10734/B04] | 88.4 | 14.4 | 38.7
CNS(=O)(=O)c1ccc2c(c1)C(=Cc1ccc([N+](=O)[O-])cc1)C(=O)N2 [10734/D06] | 30.6 | -9.1 | 1.3
O=C1Nc2ccc(I)cc2C1=Cc1cc(Cl)cc(Cl)c1O [10734/B03] | 90.1 | 13.0 | 45.1
COc1c([N+](=O)[O-])cc(C=C2C(=O)Nc3ccc(S(=O)(=O)Nc4ccc(C(F)(F)F)cc4)cc32)cc1C(C)(C)C [10733/E03] | 26.8 | 43.1 | 10.7
COc1c(C(C)(C)C)cc(C=C2C(=O)Nc3ccc(S(=O)(=O)N4CCOCC4)cc32)cc1C(C)(C)C [10733/F04] | 65.1 | -28.7 | 76.3
CC(C)(C)c1ccc(C=C2C(=O)Nc3ccc(I)cc32)cc1 [10734/B10] | 82.6 | 7.7 | 60.7
CC(C)(C)c1ccc(C=C2C(=O)Nc3c(Br)cc(Br)cc32)cc1 [10734/A10] | 55.4 | 26.3 | 27.8
COc1c(C)cc(C=C2C(=O)Nc3ccc(CCCl)cc32)cc1C [10733/G06] | 0.8 | 0.1 | 5.2
COc1cc(Br)cc(C=C2C(=O)Nc3ccc(S(=O)(=O)N4CCOCC4)cc32)c1O [10733/F08] | 66.6 | -32.4 | 17.2
COc1cc(Br)cc(C=C2C(=O)Nc3ccc(CCCl)cc32)c1O [10733/G08] | 79.0 | 68.7 | 44.2
Cc1c(Br)ccc2c1C(=Cc1ccc(Br)s1)C(=O)N2 [10734/C11] | 23.9 | 9.1 | 18.0
Cc1cc(C=C2C(=O)Nc3ccc(S(=O)(=O)Nc4ccc(C(F)(F)F)cc4)cc32)cc(C)c1OCc1ccccc1 [10733/E07] | -10.1 | 29.3 | 19.9
CNS(=O)(=O)c1ccc2c(c1)C(=Cc1cc(Br)cc(Br)c1O)C(=O)N2 [10734/D07] | 92.0 | 28.1 | 51.1
CCN(CC)c1ccc(C=C2C(=O)Nc3c(Br)cc(Br)cc32)c(O)c1 [10734/A05] | 69.9 | 2.9 | 22.6
O=C1Nc2c(Br)cc(Br)cc2C1=Cc1cccc(F)c1O [10734/A08] | 71.5 | 9.1 | 6.8
Cc1c(Br)ccc2c1C(=Cc1ccc(C(C)(C)C)cc1)C(=O)N2 [10734/C10] | 11.6 | 17.4 | 24.4
Cc1c(Br)ccc2c1C(=Cc1ccc(O)c(Br)c1)C(=O)N2 [10734/C09] | 88.6 | 11.3 | 36.2
CC(C)(C)c1cc(C=C2C(=O)Nc3ccc(CCCl)cc32)cc(I)c1OCc1ccccc1 [10733/G02] | 64.5 | -7.6 | -6.2
O=C1Nc2ccc(S(=O)(=O)Nc3ccc(C(F)(F)F)cc3)cc2C1=Cc1cc(Br)ccc1O [10733/E09] | 62.6 | 35.8 | 72.4
